# Experimental data as given in article PMC10879502, “Linking ATP and allosteric sites to achieve superadditive binding with bivalent EGFR kinase inhibitors” (Communications Chemistry, 2024).
# Tests used:
# Test in all cases: KINOMEscan
# Format in all cases: binding
# Settings in all cases: 1 μM
# [1] = biological target: p38-gamma (Homo sapiens, UniProt P53778)
# [2] = biological target: T1, KIT(D816H) (Homo sapiens, UniProt P10721, D816H)
# T1 construct: purchased Eurofins DiscoverX (KINOMEscan)
# [3] = biological target: ADCK4 (Homo sapiens, UniProt Q96D53)
# [4] = biological target: T2, MLCK (Homo sapiens, UniProt Q32MK0)
# T2 construct: purchased Eurofins DiscoverX Corporation
# [5] = biological target: PIK3CA(M1043I) (Homo sapiens, UniProt P42336, M1043I)
# [6] = biological target: FAK (Homo sapiens, UniProt Q05397)
# [7] = biological target: ERK8 (Homo sapiens, UniProt Q8TD08)
# [8] = biological target: PIK3CB (Homo sapiens, UniProt P42338)
# [9] = biological target: NLK (Homo sapiens, UniProt Q9UBE8)
# Chain of NLK (Q9UBE8 whole entry): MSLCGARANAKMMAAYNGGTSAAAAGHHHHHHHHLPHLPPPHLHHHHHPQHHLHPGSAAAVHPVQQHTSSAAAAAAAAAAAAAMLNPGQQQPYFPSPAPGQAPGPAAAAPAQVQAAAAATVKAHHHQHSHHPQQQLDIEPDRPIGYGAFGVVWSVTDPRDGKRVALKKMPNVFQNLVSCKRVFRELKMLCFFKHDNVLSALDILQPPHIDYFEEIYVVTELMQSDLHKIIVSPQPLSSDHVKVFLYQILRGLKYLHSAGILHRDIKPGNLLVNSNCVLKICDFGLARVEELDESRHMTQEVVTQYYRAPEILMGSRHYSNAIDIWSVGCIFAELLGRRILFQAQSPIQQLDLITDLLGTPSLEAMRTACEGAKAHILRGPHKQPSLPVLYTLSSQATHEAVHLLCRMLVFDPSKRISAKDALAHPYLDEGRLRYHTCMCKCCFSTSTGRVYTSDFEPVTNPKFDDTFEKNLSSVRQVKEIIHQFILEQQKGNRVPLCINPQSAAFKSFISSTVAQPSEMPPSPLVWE
# [10] = biological target: EIF2AK1 (Homo sapiens, UniProt Q9BQI3)
# Chain of EIF2AK1 (Q9BQI3 whole entry): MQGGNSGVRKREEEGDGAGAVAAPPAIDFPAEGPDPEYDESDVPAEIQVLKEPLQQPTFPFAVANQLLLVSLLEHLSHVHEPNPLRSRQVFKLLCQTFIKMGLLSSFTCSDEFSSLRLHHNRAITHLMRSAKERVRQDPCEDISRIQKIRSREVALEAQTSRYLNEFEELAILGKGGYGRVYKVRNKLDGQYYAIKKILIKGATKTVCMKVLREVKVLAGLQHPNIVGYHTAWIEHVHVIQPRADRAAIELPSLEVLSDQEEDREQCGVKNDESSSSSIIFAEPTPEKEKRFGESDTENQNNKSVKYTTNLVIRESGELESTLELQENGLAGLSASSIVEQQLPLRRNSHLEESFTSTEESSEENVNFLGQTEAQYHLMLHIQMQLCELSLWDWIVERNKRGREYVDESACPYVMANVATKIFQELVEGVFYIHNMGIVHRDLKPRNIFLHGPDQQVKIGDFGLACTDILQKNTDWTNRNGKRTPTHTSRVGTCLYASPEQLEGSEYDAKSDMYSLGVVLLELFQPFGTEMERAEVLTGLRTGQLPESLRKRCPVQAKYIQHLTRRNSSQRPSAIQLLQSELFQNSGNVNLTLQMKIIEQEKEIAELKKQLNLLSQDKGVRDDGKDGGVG
# [11] = biological target: T3, MYO3B (Homo sapiens, UniProt Q8WXR4)
# T3 construct: purchased Eurofins DiscoverX Corporation
# [12] = biological target: EPHB2 (Homo sapiens, UniProt P29323)
# Chain of EPHB2 (P29323 19-1055): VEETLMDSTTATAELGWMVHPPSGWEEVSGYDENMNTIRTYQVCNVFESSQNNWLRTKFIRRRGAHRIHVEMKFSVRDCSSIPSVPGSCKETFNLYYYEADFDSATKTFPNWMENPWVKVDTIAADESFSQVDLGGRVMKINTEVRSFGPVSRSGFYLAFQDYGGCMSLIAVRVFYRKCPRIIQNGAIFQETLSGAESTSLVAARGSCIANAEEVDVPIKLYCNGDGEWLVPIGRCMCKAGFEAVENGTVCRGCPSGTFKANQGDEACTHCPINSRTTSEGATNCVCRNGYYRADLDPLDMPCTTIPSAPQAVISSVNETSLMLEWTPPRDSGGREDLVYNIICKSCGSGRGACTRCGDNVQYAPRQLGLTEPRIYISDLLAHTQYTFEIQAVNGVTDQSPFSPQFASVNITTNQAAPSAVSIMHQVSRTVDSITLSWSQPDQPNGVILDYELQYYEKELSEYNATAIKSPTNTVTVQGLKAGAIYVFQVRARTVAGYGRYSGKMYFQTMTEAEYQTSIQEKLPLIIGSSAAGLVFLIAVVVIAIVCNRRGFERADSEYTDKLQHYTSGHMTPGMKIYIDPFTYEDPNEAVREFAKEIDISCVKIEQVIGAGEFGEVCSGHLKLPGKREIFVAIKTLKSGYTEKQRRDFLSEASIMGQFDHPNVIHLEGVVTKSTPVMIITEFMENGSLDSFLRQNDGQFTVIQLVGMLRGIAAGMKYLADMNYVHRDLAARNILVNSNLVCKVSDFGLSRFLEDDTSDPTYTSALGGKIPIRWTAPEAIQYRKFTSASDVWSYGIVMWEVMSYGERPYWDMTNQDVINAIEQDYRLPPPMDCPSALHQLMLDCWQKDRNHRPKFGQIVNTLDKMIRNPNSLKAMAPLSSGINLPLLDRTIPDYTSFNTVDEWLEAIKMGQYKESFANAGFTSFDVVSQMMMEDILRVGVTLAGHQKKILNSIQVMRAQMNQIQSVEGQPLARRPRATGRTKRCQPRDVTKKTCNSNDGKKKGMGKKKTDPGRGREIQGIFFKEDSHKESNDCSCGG
# [13] = biological target: VPS34 (Homo sapiens, UniProt Q8NEB9)
# [14] = biological target: EGFR(L858R+T790M) (Homo sapiens, UniProt P00533, L858R/T790M)
# [15] = biological target: T4, HIPK3 (Homo sapiens, UniProt Q9H422)
# T4 construct: purchased Eurofins DiscoverX Corporation
# [16] = biological target: T5, CSNK1G2 (Homo sapiens, UniProt P78368)
# T5 construct: purchased Eurofins DiscoverX Corporation
# [17] = biological target: PIK3CA(H1047Y) (Homo sapiens, UniProt P42336, H1047Y)
# [18] = biological target: TYK2(JH2domain-pseudokinase) (Homo sapiens, UniProt P29597)
# [19] = biological target: PIKFYVE (Homo sapiens, UniProt Q9Y2I7)
# [20] = biological target: YSK1 (Homo sapiens, UniProt O00506)
# [21] = biological target: T6, ABL1(T315I)-nonphosphorylated (Homo sapiens, UniProt P00519, T315I)
# T6 construct: purchased Eurofins DiscoverX Corporation
# [22] = biological target: T7, MKK7 (Homo sapiens, UniProt O14733)
# T7 construct: purchased Eurofins DiscoverX Corporation
# [23] = biological target: T8, CAMK1D (Homo sapiens, UniProt Q8IU85)
# T8 construct: purchased Eurofins DiscoverX Corporation (KINOMEscan)
# [24] = biological target: T9, TSSK3 (Homo sapiens, UniProt Q96PN8)
# T9 construct: purchased Eurofins DiscoverX Corporation
# [25] = biological target: PIK3C2B (Homo sapiens, UniProt O00750)
# Chain of PIK3C2B (O00750 whole entry): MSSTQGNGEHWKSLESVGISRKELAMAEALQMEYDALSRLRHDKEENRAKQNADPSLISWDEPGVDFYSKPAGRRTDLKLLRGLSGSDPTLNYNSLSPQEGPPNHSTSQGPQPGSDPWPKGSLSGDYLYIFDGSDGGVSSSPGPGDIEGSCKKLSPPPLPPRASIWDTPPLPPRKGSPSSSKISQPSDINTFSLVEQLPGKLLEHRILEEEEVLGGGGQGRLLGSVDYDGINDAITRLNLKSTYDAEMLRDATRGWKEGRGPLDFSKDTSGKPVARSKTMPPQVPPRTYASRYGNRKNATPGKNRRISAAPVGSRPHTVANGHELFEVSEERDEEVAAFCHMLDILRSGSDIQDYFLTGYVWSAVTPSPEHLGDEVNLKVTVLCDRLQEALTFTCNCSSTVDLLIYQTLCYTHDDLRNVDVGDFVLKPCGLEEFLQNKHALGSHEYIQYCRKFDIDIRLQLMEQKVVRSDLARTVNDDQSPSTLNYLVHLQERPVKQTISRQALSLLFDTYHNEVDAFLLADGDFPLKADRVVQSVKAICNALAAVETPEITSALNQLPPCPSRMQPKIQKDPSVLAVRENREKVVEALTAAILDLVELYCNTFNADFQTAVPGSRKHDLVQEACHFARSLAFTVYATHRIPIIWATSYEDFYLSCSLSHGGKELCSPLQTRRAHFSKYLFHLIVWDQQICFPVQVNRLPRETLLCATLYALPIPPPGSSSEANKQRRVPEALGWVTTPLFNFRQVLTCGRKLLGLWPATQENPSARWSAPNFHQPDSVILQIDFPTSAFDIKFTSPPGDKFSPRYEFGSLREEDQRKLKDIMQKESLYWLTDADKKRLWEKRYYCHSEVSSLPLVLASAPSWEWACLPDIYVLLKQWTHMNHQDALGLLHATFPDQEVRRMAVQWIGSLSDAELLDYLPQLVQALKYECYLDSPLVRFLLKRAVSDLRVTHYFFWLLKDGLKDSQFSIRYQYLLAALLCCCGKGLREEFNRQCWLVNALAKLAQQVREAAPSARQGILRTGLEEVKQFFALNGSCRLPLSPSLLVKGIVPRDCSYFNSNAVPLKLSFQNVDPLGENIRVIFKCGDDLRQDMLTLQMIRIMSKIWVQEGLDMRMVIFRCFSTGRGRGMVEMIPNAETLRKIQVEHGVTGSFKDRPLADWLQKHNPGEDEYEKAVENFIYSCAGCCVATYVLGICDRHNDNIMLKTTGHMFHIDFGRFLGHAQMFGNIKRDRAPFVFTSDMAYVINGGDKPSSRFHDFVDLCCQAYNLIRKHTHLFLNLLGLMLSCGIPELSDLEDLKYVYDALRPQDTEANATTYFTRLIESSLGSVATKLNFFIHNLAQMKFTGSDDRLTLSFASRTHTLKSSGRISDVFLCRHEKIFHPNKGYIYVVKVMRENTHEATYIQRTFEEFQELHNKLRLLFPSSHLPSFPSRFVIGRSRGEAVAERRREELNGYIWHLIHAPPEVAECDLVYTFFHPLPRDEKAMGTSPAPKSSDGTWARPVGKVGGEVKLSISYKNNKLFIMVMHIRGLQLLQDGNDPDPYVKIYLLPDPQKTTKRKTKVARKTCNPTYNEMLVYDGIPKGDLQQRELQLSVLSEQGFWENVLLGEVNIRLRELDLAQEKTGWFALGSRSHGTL
# [26] = biological target: PHKG2 (Homo sapiens, UniProt P15735)
# [27] = biological target: T10, DRAK2 (Homo sapiens, UniProt O94768)
# T10 construct: purchased Eurofins DiscoverX Corporation
# [28] = biological target: TYK2(JH1domain-catalytic) (Homo sapiens, UniProt P29597)
# [29] = biological target: T11, KIT-autoinhibited (Homo sapiens, UniProt P10721)
# T11 construct: purchased Eurofins DiscoverX Corporation
# T11 sequence (P10721 544-976 limits assumed): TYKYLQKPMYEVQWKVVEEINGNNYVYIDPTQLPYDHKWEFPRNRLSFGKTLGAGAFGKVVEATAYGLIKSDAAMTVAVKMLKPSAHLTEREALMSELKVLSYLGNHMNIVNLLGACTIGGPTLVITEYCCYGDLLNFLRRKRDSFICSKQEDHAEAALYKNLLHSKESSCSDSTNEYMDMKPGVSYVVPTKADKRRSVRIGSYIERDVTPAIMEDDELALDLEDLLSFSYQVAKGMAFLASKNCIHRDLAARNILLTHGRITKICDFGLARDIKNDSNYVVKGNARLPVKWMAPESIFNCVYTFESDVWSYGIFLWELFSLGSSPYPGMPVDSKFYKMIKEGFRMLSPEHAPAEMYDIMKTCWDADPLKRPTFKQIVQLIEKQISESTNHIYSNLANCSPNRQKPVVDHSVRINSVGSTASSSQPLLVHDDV
# [30] = biological target: T12, TESK1 (Homo sapiens, UniProt Q15569)
# T12 construct: purchased Eurofins DiscoverX Corporation
# [31] = biological target: PRP4 (Homo sapiens, UniProt Q13523)
# Description: (§1) Figure S19 : Metabolic stability determination of 4 in human liver microsomes, compared to a negative control containing bovine serum albumin instead of liver microsomes and a positive control using verapamil instead of compound.
# (§2) Table S7 : Data was obtained from KINOMEscan TM using 1 μM of compound 4 against 468 kinases. Eurofins DiscoverX Corporation (San Diego), CA 92121, USA. Results stated as percent of control (POC), where lower values are associated with lower Kd values. […]
# (§3) ABL1(F317L)-nonphosphorylated 37 […]
# (§4) (1 picture or pasted object on this page, not shown here)
# [32] = biological target: T13, CDC2L5 (Homo sapiens, UniProt Q14004)
# T13 construct: purchased Eurofins DiscoverX Corporation (KINOMEscan)
# Description: as §1, §2, §3, §4
# [33] = biological target: p38-delta (Homo sapiens, UniProt O15264)
# Chain of p38-delta (O15264 whole entry): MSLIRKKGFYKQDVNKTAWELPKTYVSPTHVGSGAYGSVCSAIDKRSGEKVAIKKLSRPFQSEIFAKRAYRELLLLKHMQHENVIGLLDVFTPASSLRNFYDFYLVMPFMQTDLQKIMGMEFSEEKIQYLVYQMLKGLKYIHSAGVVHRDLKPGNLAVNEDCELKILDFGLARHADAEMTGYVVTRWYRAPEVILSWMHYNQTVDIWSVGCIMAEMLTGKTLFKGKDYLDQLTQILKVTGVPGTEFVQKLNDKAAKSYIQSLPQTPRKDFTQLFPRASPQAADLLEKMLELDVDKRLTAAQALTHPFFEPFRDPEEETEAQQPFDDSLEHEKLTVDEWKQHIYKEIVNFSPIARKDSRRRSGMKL
# [34] = biological target: BIKE (Homo sapiens, UniProt Q9NSY1)
# [35] = biological target: T14, MAP3K3 (Homo sapiens, UniProt Q99759)
# T14 construct: purchased Eurofins DiscoverX Corporation
# [36] = biological target: CDK7 (Homo sapiens, UniProt P50613)
# [37] = biological target: ACVR2B (Homo sapiens, UniProt Q13705)
# [38] = biological target: RIPK5 (Homo sapiens, UniProt Q6XUX3)
# [39] = biological target: T15, ICK (Homo sapiens, UniProt Q9UPZ9)
# T15 construct: purchased Eurofins DiscoverX (KINOMEscan)
# Chain of p38-gamma (P53778 whole entry): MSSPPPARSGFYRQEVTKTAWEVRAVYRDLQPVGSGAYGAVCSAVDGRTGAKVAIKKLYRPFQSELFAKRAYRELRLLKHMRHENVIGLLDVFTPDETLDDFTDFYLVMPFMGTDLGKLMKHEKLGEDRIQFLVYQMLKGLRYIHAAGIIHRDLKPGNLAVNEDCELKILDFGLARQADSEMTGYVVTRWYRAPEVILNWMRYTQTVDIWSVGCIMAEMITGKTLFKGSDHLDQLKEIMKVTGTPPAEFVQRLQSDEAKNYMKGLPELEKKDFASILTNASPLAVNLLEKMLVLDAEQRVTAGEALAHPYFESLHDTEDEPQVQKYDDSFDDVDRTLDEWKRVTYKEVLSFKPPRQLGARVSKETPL
smiles,measurement,setting,value
C=CC(=O)Nc1ccc(OC)c(Nc2cc(-c3[nH]c(CC)nc3-c3cccc(NC(=O)c4cccc5c4NC(=O)c4ccccc4N5)c3)ccn2)c1 [Compound 4],POC,[1],100% of control
same,POC,[2],39% of control
same,POC,[3],85% of control
same,POC,[4],86% of control
same,POC,[5],55% of control
same,POC,[6],99% of control
same,POC,[7],100% of control
same,POC,[8],90% of control
same,POC,[9],48% of control
same,POC,[10],75% of control
same,POC,[11],31% of control
same,POC,[12],100% of control
same,POC,[13],84% of control
same,POC,[14],8.3% of control
same,POC,[15],100% of control
same,POC,[16],91% of control
same,POC,[17],66% of control
same,POC,[18],100% of control
same,POC,[19],94% of control
same,POC,[20],76% of control
same,POC,[21],98% of control
same,POC,[22],31% of control
same,POC,[23],100% of control
same,POC,[24],100% of control
same,POC,[25],74% of control
same,POC,[26],73% of control
same,POC,[27],94% of control
same,POC,[28],91% of control
same,POC,[29],100% of control
same,POC,[30],94% of control
same,POC,[31],46% of control
same,POC,[32],74% of control
same,POC,[33],100% of control
same,POC,[34],100% of control
same,POC,[35],51% of control
same,POC,[36],49% of control
same,POC,[37],72% of control
same,POC,[38],79% of control
same,POC,[39],100% of control
